From US12491185B2, “Inhibitors of mPTP” (NRG Therapeutics Ltd, priority 2023, dated 2025) come the findings set out here.

Assay [1] concerns mPTP. Put plainly: mPTP activity (Ca2+ retention) assay in isolated rat liver mitochondria. Format: biochemical. The conditions noted are these: for mPTP Rat liver pIC50: examples tested by different contract research organisations, believed comparable. Summed up:
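pIC50 was taken from Fluo5N fluorescence at 10 min after a 75 μM CaCl2 bolus, scaled between DMSO (0%) and 5 μM cyclosporin A (100%). Compounds, ten half-log concentrations from 30 μM to 1 nM final, sat 10 min at RT with fresh female Sprague Dawley rat liver mitochondria energized by succinate plus rotenone.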

Assay [2] relates to mPTP. Put plainly: mPTP activity assay in isolated rat brain mitochondria. Format: biochemical. The conditions noted are these: fluorescence at 10 min timepoint. The gist of the method: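 Fresh brain mitochondria from female Sprague Dawley rats, digitonin-washed, in pH 7.4 mannitol/MOPS/KCl buffer with pyruvate, malate, ADP, oligomycin A and 2 μM Fluo5N. Preincubated with compounds 10 min at RT. Fluo5N fluorescence then read every 3 sec for 10 min on FLIPR Tetra.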

Assay [3] has as its system mPTP. Put plainly: Human platelet mitochondria assay (annexin V / PS exposure by flow cytometry). Format: cell-based. The conditions noted are these: human blood platelets stimulated with thrombin/convulxin/calcium; % AnV-APC positive platelets. As to the method:
The mPTP cell based assay was performed using a transformative functional cell-(human blood platelets)-based assay by flow cytometry. Procoagulant platelets expose phosphatidylserine (PS), allowing a burst of thrombin generation that is responsible for producing an occlusive thrombus. While an increase in cytosolic Ca^2+ concentration is required for deriving platelets to become activated, a higher and more sustained increases in cytosolic Ca^2+ concentration is needed to commit some platelets to becoming procoagulant. Simulation of platelets results in the rapid influx of Ca^2+ across the platelet membrane. The Ca^2+ is then sequestered by mitochondria until the threshold for mPTP opening is reached, at which point the pore opens and the mitochondrial membrane potential is dissipated. mPTP opening and subsequent disruption in mitochondrial membrane potential leads to release of a high concentration of calcium stored in mitochondria into the platelet's cytosol (“supramaximal calcium signal” [1]) which is known to be a requisite initiating signal transduction leading to externalisation of procoagulant PS to the outer leaflet of platelets' plasma membrane. PS externalisation of stimulated platelets can be quantified in live platelets using standard annexin V (AnV) labelling by flow cytometry, enabling pharmacological characterisation of mPTP inhibitors.
Fresh human blood (9 ml) was collected from consenting donors into 3.2% sodium citrate. Acid citrate dextrose (85 mM tri-sodium citrate, 71 mM citric acid, and 111 mM D-glucose) was added (1:7 vol/vol) and platelet-rich plasma was separated by centrifugation (200 g, 10 minutes, ambient temperature, and without any brake). Platelets were pelleted by centrifugation (600 g, 10 minutes, ambient temperature) in the presence of prostaglandin E1 (100 nM) and apyrase (0.02 U/mL). Pelleted platelets were resuspended in N-2-hydroxyethylpiperazine-N′-2-ethanesulfonic acid (HEPES)-buffered saline supplemented with D-glucose (135 mM NaCl, 10 mM HEPES, 3 mM KCl, 1 mM MgCl2, 0.34 mM NaH2PO4, 5 mM D-glucose, 0.1% bovine serum albumin, pH 7.4.) and apyrase (0.02 U/mL). Platelets were rested for 30 minutes at 30° C. before treatment protocols were initiated.
Test compounds were prepared from 10 mM stocks in DMSO. Serial dilution of search test compounds stamped in duplicate into a 96 well plate using Multidrop Pico 8 Digital Dispenser. Platelets were loaded and incubated for 30 min at room temperature. Then a stimulation mix containing Thrombin (FAC: 0.5 U/ml)/Convulxin (FAC: 0.05 μg/ml)/Calcium (FAC: 2 mM) added per well except control/not stimulated wells (This is low signal control). Some wells received no treatment but DMSO vehicle control and used as high signal controls (FAC of DMSO set at 0.1% in all wells of the 96 well plate). The reaction mix incubated for 10 min at room temperature. During last 2 min of stimulation AnV-APC was added to detect surface PS exposure. Samples ten fixed and fluorescence was detected by MACSQuant X flow cytometry and 10 000 platelet events were collected. The percentage of AnV-APC positive platelets was calculated for each well. IC50 for each compound was then calculated using a standard four parameter curve fit model (GraphPad Prism).

For `CC(CNC(=O)c1nccc(=O)[nH]1)(Cc1ccc(F)cc1)C1CC1` (single isomer, unassigned) [Example 252], the “mPTP Rat liver pIC50” value in the assay on mPTP [1] turned out to be 6.82. Moreover, in the assay with mPTP [2], the “mPTP Rat brain pIC50” value came to 7.91. In addition, the pIC50 (commonly −log10 of the IC50, conventionally taken in molar units) in the assay with mPTP [3] came out at 7.42.

Consider `Cn1nc(C(=O)NC[C@H](Cc2ccc(F)cc2F)C2CC2)[nH]c1=O` [Example 96, (R)—N-(2-Cyclopropyl-3-(2,4-difluorophenyl)propyl)-1-methyl-5-oxo-4,5-dihydro-1H-1,2,4-triazole-3-carboxamide], for which the “mPTP Rat liver pIC50” value in the assay with mPTP [1] is reported as 6.76. For the same compound, the “mPTP Rat brain pIC50” value in the assay with mPTP [2] worked out at 7.91. The pIC50 in the assay with mPTP [3] worked out at 7.43.

Take `O=C(NC[C@@H](Cc1ccc(F)cc1)C1CC1)c1nccc(=O)[nH]1` [Example 249]: the pIC50 in the assay with mPTP [3] is listed as 6.52.

As for `Cn1nc(C(=O)NCC2(Cc3ccc(F)cc3F)CCC2)[nH]c1=O` [Example 22, N-((1-(2,4-difluorobenzyl)cyclobutyl)methyl)-1-methyl-5-oxo-4,5-dihydro-1H-1,2,4-triazole-3-carboxamide], in the assay with mPTP [1], the “mPTP Rat liver pIC50” value is on record as 6.79. Also, the “mPTP Rat brain pIC50” value in the assay on mPTP [2] amounted to 7.75. In addition, the pIC50 in the assay with mPTP [3] was 7.14.

In the case of `O=C(NCC1(Cc2ccc(F)cc2F)CC12CC2)c1nccc(=O)[nH]1` (single isomer, unassigned) [Example 235], in the assay on mPTP [1], the “mPTP Rat liver pIC50” value came to 6.79. Also, the “mPTP Rat brain pIC50” value in the assay with mPTP [2] is reported as 7.65. In the assay on mPTP [3], the pIC50 is 7.31.

`Cn1nc(C(=O)NC[C@H](Cc2c(F)cc(F)cc2F)C2CC2)[nH]c1=O` [Example 117, (R)—N-(2-cyclopropyl-3-(2,4,6-trifluorophenyl)propyl)-1-methyl-5-oxo-4,5-dihydro-1H-1,2,4-triazole-3-carboxamide]: the “mPTP Rat liver pIC50” value in the assay on mPTP [1] came out at 6.47. The “mPTP Rat brain pIC50” value with mPTP [2] came to 7.56. In the assay with mPTP [3], the pIC50 came to 6.90.

Regarding `Cn1nc(C(=O)NCC(C)(Cc2ccc(F)cc2F)C2CC2)[nH]c1=O` (single isomer, unassigned) [Example 239, N-(2-cyclopropyl-3-(2,4-difluorophenyl)-2-methylpropyl)-1-methyl-5-oxo-4,5-dihydro-1H-1,2,4-triazole-3-carboxamide], the “mPTP Rat liver pIC50” value with mPTP [1] is on record as 7.10. In addition, in the assay on mPTP [2], the “mPTP Rat brain pIC50” value worked out at 8.07. Moreover, the pIC50 in the assay on mPTP [3] came to 7.39.

`Cn1nc(C(=O)NC[C@H](Cc2ccc(F)cc2)C2CC2)[nH]c1=O` [Example 190]: the “mPTP pIC50 rat liver mitochondria” value in the assay with mPTP [1] (Fluo5N fluorescence at 10 min after 75 μM CaCl2) was “highest activity”. Also, the “mPTP Rat liver pIC50” value in the assay on mPTP [1] stood at 7.31. For the same compound, the “mPTP Rat brain pIC50” value in the assay with mPTP [2] is listed as 7.75. In the assay with mPTP [3], the negative logarithm of the IC50 (pIC50) came out at 7.23.

In the case of `CC(C)(CNC(=O)c1ccc2oc(=O)[nH]c2c1)Cc1ccccc1` [Example 57], the “mPTP Rat liver pIC50” value in the assay with mPTP [1] was found to be 5.43. In the assay with mPTP [2], the “mPTP Rat brain pIC50” value is recorded as 6.25.

`CCC(CNC(=O)c1nn(C)c(=O)[nH]1)Cc1cccs1` (stereo not shown) [Example 80, 1-Methyl-5-oxo-N-(2-(thiophen-2-ylmethyl)butyl)-4,5-dihydro-1H-1,2,4-triazole-3-carboxamide]: in the assay with mPTP [1], the “mPTP Rat liver pIC50” value came out at 5.77. Also, the “mPTP Rat brain pIC50” value in the assay on mPTP [2] turned out to be 6.29.

`Cn1nc(C(=O)NCC(C)(Cc2c(F)cc(F)cc2F)C2CC2)[nH]c1=O` (single isomer, unassigned) [Example 227, N-[2-cyclopropyl-2-methyl-3-(2,4,6-trifluorophenyl)propyl]-1-methyl-5-oxo-4H-1,2,4-triazole-3-carboxamide]: in the assay with mPTP [1], the “mPTP Rat liver pIC50” value is given as 6.21. In the assay with mPTP [2], the “mPTP Rat brain pIC50” value worked out at 7.76.

In the case of `Cn1nc(C(=O)NCC2(Cc3cccc(F)c3)CCC2)[nH]c1=O` [Example 84, N-((1-(3-Fluorobenzyl)cyclobutyl)methyl)-1-methyl-5-oxo-4,5-dihydro-1H-1,2,4-triazole-3-carboxamide], in the assay on mPTP [1], the “mPTP Rat liver pIC50” value came out at 6.72. Besides, the “mPTP Rat brain pIC50” value in the assay on mPTP [2] was found to be 7.72.

Take `O=C(NCC1(Cc2c(F)cccc2F)CCC1)c1cncc(=O)[nH]1` [Example 15, N-((1-(2,6-difluorobenzyl)cyclobutyl)methyl)-6-oxo-1,6-dihydropyrazine-2-carboxamide]: the “mPTP Rat liver pIC50” value in the assay with mPTP [1] is recorded as 5.92. For the same compound, the “mPTP Rat brain pIC50” value with mPTP [2] was determined as 7.65.

On to `O=C(NC[C@H](Cc1ccc(F)c(F)c1)C1CC1)c1noc(=O)[nH]1` [Example 203], for which the “mPTP Rat liver pIC50” value in the assay with mPTP [1] was determined as 6.48. Moreover, in the assay on mPTP [2], the “mPTP Rat brain pIC50” value is 7.66.

`O=C(NC[C@H](Cc1ccc(F)cc1F)C1CC1)c1cncc(=O)[nH]1` [Example 149]: the “mPTP Rat liver pIC50” value with mPTP [1] turned out to be 6.32. In the assay with mPTP [2], the “mPTP Rat brain pIC50” value is given as 7.07.

As for `Cn1nc(C(=O)NCC(C)(Cc2c(F)cc(F)cc2F)C2CC2)[nH]c1=O` (single isomer, unassigned) [Example 228, N-[2-cyclopropyl-2-methyl-3-(2,4,6-trifluorophenyl)propyl]-1-methyl-5-oxo-4H-1,2,4-triazole-3-carboxamide], the “mPTP Rat liver pIC50” value with mPTP [1] worked out at 6.16. For the same compound, the “mPTP Rat brain pIC50” value in the assay on mPTP [2] came to 7.12.

Turning to `CC(c1ccccc1)C1(CNC(=O)c2nn(C)c(=O)[nH]2)CCC1` (stereo not shown) [Example 25, 1-methyl-5-oxo-N-((1-(1-phenylethyl)cyclobutyl)methyl)-4,5-dihydro-1H-1,2,4-triazole-3-carboxamide], the “mPTP Rat liver pIC50” value with mPTP [1] came to 6.42. Besides, the “mPTP Rat brain pIC50” value with mPTP [2] is reported as 7.37.

Take `Cn1nc(C(=O)NCC2(Cc3cccc(Br)c3)CCC2)[nH]c1=O` [Example 99, N-((1-(3-Bromobenzyl)cyclobutyl)methyl)-1-methyl-5-oxo-4,5-dihydro-1H-1,2,4-triazole-3-carboxamide]: the “mPTP Rat liver pIC50” value in the assay on mPTP [1] was 5.89. Also, in the assay with mPTP [2], the “mPTP Rat brain pIC50” value amounted to 7.68.

As for `CC[C@H](CNC(=O)c1nccc(=O)[nH]1)Cc1ccc(F)cc1F` [Example 191], the “mPTP Rat liver pIC50” value with mPTP [1] is given as 6.47. In addition, in the assay with mPTP [2], the “mPTP Rat brain pIC50” value was 7.42.

With `O=C(NCC1(Cc2ccc(F)cc2F)CCCC1)c1cncc(=O)[nH]1` [Example 152], the “mPTP Rat liver pIC50” value with mPTP [1] is 6.19. The “mPTP Rat brain pIC50” value in the assay with mPTP [2] is reported as 7.44.

With `CC(NC(=O)c1nn(C)c(=O)[nH]1)C1(Cc2ccccc2)CCC1` (single isomer, unassigned) [Example 24A, N-(1-(1-benzylcyclobutyl)ethyl)-1-methyl-5-oxo-4,5-dihydro-1H-1,2,4-triazole-3-carboxamide], the “mPTP Rat liver pIC50” value with mPTP [1] was found to be 6.75. Also, in the assay with mPTP [2], the “mPTP Rat brain pIC50” value came out at 7.83.

Take `CC[C@@H](Cc1ccc(F)cc1F)C(C)NC(=O)c1nn(C)c(=O)[nH]1` (single isomer, unassigned) [Example 223]: the “mPTP Rat liver pIC50” value in the assay on mPTP [1] came out at 6.90. Also, the “mPTP Rat brain pIC50” value with mPTP [2] was found to be 7.60.

With `O=C(NC[C@H](Cc1cc(F)ccc1F)C1CC1)c1nccc(=O)[nH]1` [Example 153], the “mPTP Rat liver pIC50” value in the assay with mPTP [1] is listed as 6.22. Moreover, the “mPTP Rat brain pIC50” value in the assay with mPTP [2] is 7.12.

For the compound `CC(CNC(=O)c1ncc(F)c(=O)[nH]1)(Cc1ccc(F)cc1)C1CC1` (single isomer, unassigned) [Example 261, N-[2-cyclopropyl-3-(4-fluorophenyl)-2-methylpropyl]-5-fluoro-4-oxo-3H-pyrimidine-2-carboxamide], in the assay on mPTP [1], the “mPTP Rat liver pIC50” value is 7.13. In the assay with mPTP [2], the “mPTP Rat brain pIC50” value is recorded as 8.29.
